Patent publication US20030143228A1, “Human telomerase reverse transcriptase as a class-II restricted tumor-associated antigen” (Baylor College of Medicine, priority 2001, published 2003)
Ends that are not written are not given here. code X = not defined here

Columns and labels:
[1] = system: hTRT-positive tumor lysates; experiment: CD4+ T-cell response to DC pulsed with tumor lysates; type: cell-based, human; details: LNCaP-FGC, BT-474, MDA-MB231, SK-MEL37, NA-6-MEL; GM-CSF release and [3H]-thymidine incorporation
Procedure: Tumor cells (5×10^7) were washed twice with PBS, resuspended in 2 ml of DC culture medium, and then lysed by 5 freeze-thaw cycles. The cells were sonicated for 10 minutes and then centrifuged at 15,000 g for 30 min (4° C.). Supernatant was recovered, aliquoted and stored at −70° C. until further use. 20 ul of the supernatant were added to a total of 5×10^5 DC in 500 ul of DC culture medium. Proteins or peptides were then added to the DC culture at different concentrations. After overnight incubation, the pulsed DC were carefully washed with PBS and irradiated with 40 Gy prior to coculture with T cells.
CD4+ T-cells react with antigen presenting cells (APCs) that take up and process the tumor antigen protein from apoptotic and dead tumor cells. Thus, the capacity of the hTRT672-reactive CD4+ T-cells clones to become activated when cocultured with APCs pulsed with lysates from different tumor types was tested.
The hTRT672 T-cell clones (2.5×10^4/well) were stimulated with autologous DC (2.5×10^3/well) pulsed with hTRT-positive tumor lysates, including the prostate tumor line LNCaP-FGC, breast tumor lines (BT-474 and MDA-MB231), melanoma lines (SK-MEL37 and NA-6-MEL), and leukemia lines (HL-60 and Jurkat), or hTRT-negative cell lysate (GM847). GM-CSF release and [^3H]-thymidine incorporation by the T-cells was measured.

HLA-DR4 transgenic mice = experiment: hTRT766 immunization of HLA-DR4 transgenic mice, IFN-γ ELISPOT of splenocytes; type: in vivo
Procedure: IFN-γ ELISPOT assay was used to analyze peptide-specific T cell responses by determining the frequency of Th precursors specific for the peptide. Mice were sacrificed […] after the last immunization and splenocytes were obtained for assessing IFN-γ production.
Briefly, 96-well MultiScreen-IP plates (Millipore Corporation, Bedford, Mass.) were coated with 100 ul/well capture mAb against mouse IFN-γ (AN-18, Mabtech Inc, Cincinnati, Ohio) at a concentration of 10 μg/ml and incubated overnight at 4° C. The plates were washed 4 times with PBS, then blocked with RPMI 1640 plus 10% FBS for 2 hours at 37° C. After washing, freshly isolated splenocytes were plated at 2×10^5cells/well in RPMI 1640 with 10% FBS, in the presence or absence of peptide hTRT766 (20 μg/ml), recombinant hTRT proteins (20 μg/ml) or hTRT-positive NA-6-Mel (ATCC) tumor lysates (50 ul/well). Tumor cell lysates were prepared by three freeze-thaw cycles of 5×10^7 tumor cells resuspended in 5 ml of RPMI 1640 with 10% FBS. Then the cells were centrifuged at 15,000 g for 30 minutes at 4° C. Supernatant was recovered, aliquoted and stored at −80° C. for later use, as described previously [Schroers, 2002 #116]. After 20 hours of cell culture in the incubator, the cells were removed by washing 3 times with PBS and 4 times with PBS/Tween20 (0.05%). Biotinylated anti-mouse IFN-γ antibody (R4-6A2, Mabtech Inc, Cincinnati, Ohio), diluted to 1 μg/ml in PBS/Tween20 containing 0.5% bovine serum albumin, was added and incubated for 2 hours at 37° C. The plates were then washed 6 times with PBS/Tween20 (0.05%) and subsequently avidin-peroxidase-complex (Vector Laboratories, Burlingame, Calif.) was added and incubated for 1 hour at room temperature, and removed by washing 3 times with PBS and PBS/Tween20 (0.05%). The color of the plates was developed by adding HRP substrate 3-amino-9-ethylcarbozole (Sigma, St. Louis, Mo.). The plates were then washed with tap water, and air dried in dark. The plates were evaluated using an automated ELISPOT reader (Zellnet Consulting Inc, New York, N.Y.).
To further assess the therapeutic potential of hTRT766, HLA-DR4 transgenic mice (Congia, 1998; Sonderstrup, 1998; Sonderstrup, 1999) were used to determine whether immunization with the peptide induces a CD4+ Th response specific not only for the peptide, but also for the hTRT protein.
Briefly, human HLA DR4 transgenic mice (HLA-DRB1*0401), which are murine class II-deficient and transduced with human CD4 molecule, were generated. [Congia, 1998; Sonderstrup, 1998; Sonderstrup, 1999). The transgenic mice were successfully used to identify human class-II-restricted epitopes and to study immune responses (Congia, 1998; Sonderstrup, 1998; Sonderstrup, 1999; Geluk, 1998). HLA DR4 expression on the transgenic mice was analyzed by flow cytometry. Male DR4 transgenic mice 6- to 10-week-old were used for experiment. The transgenic mice were immunized twice at one week interval with 100 μg of hTRT766 peptide emulsified in complete Freunds adjuvant (CFA) (final volume, 100 μl) and administered subcutaneously (s.c.) into the rear back. Control group mice were injected with phosphate-buffered saline (PBS) emulsified in CFA.
The spleen cells were isolated and stained with FITC-conjugated mouse anti-human HLA-DR, PE-conjugated mouse anti-human CD4 or FITC-conjugated rat anti-mouse CD4 (BD PharMingen, San Diego, Calif.). Flow cytometric analysis determined that these transgenic mice were human HLA-DR, CD4 positive and mouse CD4 negative. Ten days after the last immunization, the transgenic mice were sacrificed and the responses of their splenocytes to peptides, recombinant hTRT protein and hTRT-positive tumor cell were examined by using IFN-γ ELISPOT assays. The splenocytes of hTRT766-immunized mice responded strongly to the hTRT766 stimulation, producing IFN-γ at a frequency of 72 spots per million of splenocytes (medium control, 10/106). […]

Sequence | T-cell clone response to DC pulsed with hTRT+ tumor lysates [1] | response of splenocytes of immunized mice to irrelevant peptide hTRT854 (HLA-DR4 transgenic mice; 100 μg peptide in CFA s.c. twice, IFN-γ ELISPOT) | IFN-γ ELISPOT frequency of splenocytes of immunized mice (HLA-DR4 transgenic mice; 100 μg peptide in CFA s.c. twice, restimulated with hTRT766 peptide 20 μg/ml) | IFN-γ ELISPOT frequency of splenocytes of immunized mice (HLA-DR4 transgenic mice; restimulated with recombinant hTRT protein 20 μg/ml) | IFN-γ ELISPOT frequency of splenocytes of immunized mice (HLA-DR4 transgenic mice; stimulated with hTRT-negative GM847 tumor lysates, background frequency) | IFN-γ ELISPOT frequency of splenocytes of immunized mice (HLA-DR4 transgenic mice; stimulated with hTRT-positive NA-6-Mel cell lysates) | IFN-γ ELISPOT frequency of splenocytes of immunized mice (HLA-DR4 transgenic mice; stimulated with irrelevant CEA-Fc proteins, background frequency)
RPGLLGASVLGLDDI [hTRT672] | proliferated and secreted GM-CSF | – | – | – | – | – | –
XLTDLQPYMRQFVAHL ({code X}-LTDLQPYMRQFVAHL; not fully specified; reading uncertain) [hTRT766] | – | did not respond | 72 spots per million of splenocytes | 41 spots per million cells | 10/106 | 38 spots per million cells | 10/106
